In ChEMBL document CHEMBL1146106, “1-Phenyl-8-azabicyclo[3.2.1]octane ethers: a novel series of neurokinin (NK1) antagonists” (Bioorg Med Chem Lett, 2006):
pIC50, pKi: −log10 of the molar value.

Key:
Gerbil, jird [1] = experiment: Inhibition of GR-73632-induced foot tapping in iv dosed gerbils after 24 hrs; type: functional; conditions: Meriones, read-out: ID50 (the source's name)
Gerbil, jird [2] = experiment: Inhibition of GR-73632-induced foot tapping in iv dosed gerbil; type: functional; conditions: Meriones, read-out: ID50 (the source's name)
[3] = target: Voltage-gated inwardly rectifying potassium channel KCNH2 (Homo sapiens, UniProt Q12809); experiment: Displacement of [35S]-labeled MK499 from cloned hERG expressed in HEK cells; type: cell-based, HEK293
Substance-P receptor = Substance-P receptor (Homo sapiens, UniProt P25103); experiment: Displacement of [125I]-labeled substance P from human cloned NK1 receptor expressed in CHO cells; type: cell-based
Gerbil, jird [4] = experiment: Inhibition of GR-73632 induced foot tapping in gerbils at 3 mg/kg, iv after 24 hrs; type: functional; conditions: Meriones
Gerbil, jird [5] = experiment: Inhibition of GR-73632-induced foot tapping in gerbils at 3 mg/kg, iv; type: functional; conditions: Meriones

Voltage-gated inwardly rectifying potassium channel KCNH2, sequence (Q12809 whole entry): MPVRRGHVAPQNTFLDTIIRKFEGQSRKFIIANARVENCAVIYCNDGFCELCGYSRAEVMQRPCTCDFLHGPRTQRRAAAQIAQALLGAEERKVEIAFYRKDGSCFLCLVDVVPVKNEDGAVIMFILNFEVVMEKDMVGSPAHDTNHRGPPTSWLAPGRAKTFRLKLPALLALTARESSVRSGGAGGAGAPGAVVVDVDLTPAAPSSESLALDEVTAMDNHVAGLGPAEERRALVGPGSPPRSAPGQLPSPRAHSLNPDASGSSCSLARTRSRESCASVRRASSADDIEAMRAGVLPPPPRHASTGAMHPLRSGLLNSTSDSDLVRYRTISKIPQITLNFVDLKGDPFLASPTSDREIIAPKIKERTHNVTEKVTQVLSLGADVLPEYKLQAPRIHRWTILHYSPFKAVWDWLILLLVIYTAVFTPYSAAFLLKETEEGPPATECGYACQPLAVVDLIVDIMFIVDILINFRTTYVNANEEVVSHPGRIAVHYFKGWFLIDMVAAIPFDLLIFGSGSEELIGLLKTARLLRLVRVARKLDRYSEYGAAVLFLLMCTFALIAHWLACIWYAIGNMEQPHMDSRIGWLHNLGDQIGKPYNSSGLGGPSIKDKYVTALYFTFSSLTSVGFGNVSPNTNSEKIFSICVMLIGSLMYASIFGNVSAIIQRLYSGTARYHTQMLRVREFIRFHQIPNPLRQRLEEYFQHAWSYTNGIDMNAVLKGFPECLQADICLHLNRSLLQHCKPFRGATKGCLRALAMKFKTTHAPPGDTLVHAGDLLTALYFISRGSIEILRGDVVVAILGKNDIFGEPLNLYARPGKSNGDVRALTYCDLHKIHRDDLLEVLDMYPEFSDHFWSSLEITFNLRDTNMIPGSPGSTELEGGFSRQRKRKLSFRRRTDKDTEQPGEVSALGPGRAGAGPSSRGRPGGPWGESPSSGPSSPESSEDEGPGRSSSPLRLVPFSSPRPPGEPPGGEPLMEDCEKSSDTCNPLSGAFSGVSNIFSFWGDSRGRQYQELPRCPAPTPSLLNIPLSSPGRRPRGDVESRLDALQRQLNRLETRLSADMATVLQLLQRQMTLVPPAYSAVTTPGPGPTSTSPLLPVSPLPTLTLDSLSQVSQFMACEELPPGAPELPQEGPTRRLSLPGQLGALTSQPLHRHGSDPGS
Substance-P receptor, sequence (P25103 whole entry): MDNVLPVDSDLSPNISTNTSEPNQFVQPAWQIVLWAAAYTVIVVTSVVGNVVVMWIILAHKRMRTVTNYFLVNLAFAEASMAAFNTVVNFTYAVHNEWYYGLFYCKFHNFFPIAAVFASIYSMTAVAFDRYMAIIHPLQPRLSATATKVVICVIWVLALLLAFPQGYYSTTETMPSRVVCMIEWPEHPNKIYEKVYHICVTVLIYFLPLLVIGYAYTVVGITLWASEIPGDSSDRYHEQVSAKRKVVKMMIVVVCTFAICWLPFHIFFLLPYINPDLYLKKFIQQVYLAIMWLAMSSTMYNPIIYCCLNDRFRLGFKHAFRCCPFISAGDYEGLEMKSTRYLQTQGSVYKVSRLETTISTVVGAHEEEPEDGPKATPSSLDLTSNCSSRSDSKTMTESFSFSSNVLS

Row | Compound | ED50 (Gerbil, jird [1]) [mg/kg] | ED50 (Gerbil, jird [2]) [mg/kg] | pKi [3] | pIC50 (Substance-P receptor) | inhibition in vivo at 3 mg/kg (Gerbil, jird [4]) [%] | inhibition in vivo at 3 mg/kg (Gerbil, jird [5]) [%]
1 | C[C@@H](OC1CCC2NC1(c1ccccc1)CC2c1nnnn1C)c1cc(C(F)(F)F)cc(C(F)(F)F)c1 (stereo partly specified) | 0.8 | 0.2 | 5.55 | 8.92 |  | 
2 | C[C@@H](OC1CCC2CCC1(c1ccccc1)N2)c1cc(C(F)(F)F)cc(C(F)(F)F)c1 (stereo partly specified) |  |  |  | 8.38 |  | 
3 | C[C@@H](OC1CCC2NC1(c1ccccc1)CC2(F)c1nnn(C)n1)c1cc(C(F)(F)F)cc(C(F)(F)F)c1 (stereo partly specified) |  |  | < 5.30 | 9.40 | 23 | 
4 | Cn1nnc(C2(F)CC3(c4ccccc4)NC2CCC3OCc2cc(C(F)(F)F)cc(C(F)(F)F)c2)n1 (stereo unspecified) |  |  | < 5.00 | 8.82 | 11 | 
5 | O=S(=O)(c1ccccc1)C1CC2(c3ccccc3)NC1CCC2OCc1cc(C(F)(F)F)cc(C(F)(F)F)c1 (stereo unspecified) |  |  | 5.89 | 8.55 |  | 
6 | FC(F)(F)c1cc(COC2CCC3CCC2(c2ccccc2)N3)cc(C(F)(F)F)c1 (stereo unspecified) |  |  | 6.52 | 8.52 |  | 
7 | Cn1nnc(C2CC3(c4ccccc4)NC2CCC3OCc2cc(C(F)(F)F)cc(C(F)(F)F)c2)n1 (stereo unspecified) | 0.6 | 0.3 | 7.00 | 9.00 |  | 
8 | C[C@@H](OC1CCC2NC1(c1ccccc1)CC2S(=O)(=O)c1ccccc1)c1cc(C(F)(F)F)cc(C(F)(F)F)c1 (stereo partly specified) |  |  |  | 9.22 |  | 39
9 | C[C@@H](OC1CCC2NC1(c1ccccc1)CC2c1nnn(C)n1)c1cc(C(F)(F)F)cc(C(F)(F)F)c1 (stereo partly specified) | 1.1 | 0.4 | 5.74 | 9.30 |  | 
10 | C[C@H](OC1CCC2CCC1(c1ccccc1)N2)c1cc(C(F)(F)F)cc(C(F)(F)F)c1 (stereo partly specified) |  |  |  | 6.70 |  | 
